The values below come from patent US20250243194A1, “ANTAGONIST OF ADENOSINE RECEPTORS” (AdoRx Therapeutics Limited, priority 2022, published 2025).

The target in experiment [1] is human Adenosine A1 receptor (Homo sapiens (Human), UniProt P30542). In words: Adenosine receptor TR-FRET binding assay (A1). As to the method:
(§1) All FRET binding experiments were conducted at room temperature in white 384-well plates, in assay binding buffer containing 1× LabMed (Cisbio, France), 100 μg/mL saponin, 1% DMSO and 0.02% pluronic acid. Binding of the fluorescently labelled Adenosine receptor antagonist XAC (CA200645, FRET acceptor) to terbium-labelled A1, A2a, A2b and A3 adenosine receptors (FRET donors) was detected by time-resolved FRET due to the close proximity of the donor and acceptor in a binding event. To investigate the ability of unlabelled test compounds to bind to Adenosine A1, A2a, A2b and A3 receptors, dose response curves were constructed that determined the ability of a range of concentrations to inhibit the binding of 30 nM CA200645 to the A2b receptor and 100 nM CA200645 to the A1, A2a, and A3 receptor.
(§2) Serial dilution (1:3 dilutions) of test compounds in neat DMSO and transfer of a 400 nL sample of test compound into the assay plate was carried out using the Mosquito (TTP Labtech, UK). The compound samples were incubated for 2 hours at room temperature with a fixed concentration of CA200645 defined for each receptor (see above) and CHO cell membranes containing the human Adenosine A1 (0.5 μg/well), A2a (0.3 μg/well), A2b (1 μg/well) or A3 (1 μg/well) receptor in 40 μL of assay buffer. Total and non-specific binding of CA200645 was determined in the absence and presence of 10 μM XAC, respectively. Following 2 hours incubation, the level of CA200645 binding was detected on a Pherastar FSX (BMG Labtech, Germany) using standard TR-FRET settings. The terbium donor was excited with three laser flashes at a wavelength of 337 nm, and donor and acceptor emission was detected at 620 nm and 665 nm wavelengths, respectively. FRET ratios were obtained by multiplying the acceptor/donor ratio value by 10,000. Specific binding was determined by subtracting the non-specific binding FRET ratio from the total binding FRET ratio. Compound IC50 curves were analysed using GraphPad Prism 7.0 (GraphPad, USA) and Ki affinity values were determined from the obtained IC50 values using the method of Cheng and Prusoff.

In experiment [2] the target is human Adenosine A2a receptor (Homo sapiens (Human), UniProt P29274). In words: Adenosine receptor TR-FRET binding assay (A2a). As to the method: as §1, §2
Experiment [3] concerns the target human Adenosine A2b receptor (Homo sapiens (Human), UniProt P29275). Description: Adenosine receptor TR-FRET binding assay (A2b). To be noted: inhibition of binding of 30 nM CA200645; CHO cell membranes; Ki from IC50 by Cheng and Prusoff. The protocol:
as §1, §2

[4] abbreviates: inhibition of binding of 100 nM CA200645, CHO cell membranes, Ki from IC50 by Cheng and Prusoff.

Like-named read-outs stand apart in the source and are kept apart here.

Chain of human Adenosine A2a receptor (P29274 whole entry): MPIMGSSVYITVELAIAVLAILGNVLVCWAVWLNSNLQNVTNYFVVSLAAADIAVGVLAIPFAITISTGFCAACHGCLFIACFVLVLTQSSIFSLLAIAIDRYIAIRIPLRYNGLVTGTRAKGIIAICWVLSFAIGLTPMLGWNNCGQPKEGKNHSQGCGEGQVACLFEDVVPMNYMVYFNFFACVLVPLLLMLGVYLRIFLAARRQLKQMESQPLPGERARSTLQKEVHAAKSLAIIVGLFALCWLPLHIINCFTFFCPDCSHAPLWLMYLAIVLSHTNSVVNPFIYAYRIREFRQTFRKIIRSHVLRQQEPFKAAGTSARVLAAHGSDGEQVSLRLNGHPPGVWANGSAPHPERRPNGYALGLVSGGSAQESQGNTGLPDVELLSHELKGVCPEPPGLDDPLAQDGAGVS
Chain of human Adenosine A1 receptor (P30542 whole entry): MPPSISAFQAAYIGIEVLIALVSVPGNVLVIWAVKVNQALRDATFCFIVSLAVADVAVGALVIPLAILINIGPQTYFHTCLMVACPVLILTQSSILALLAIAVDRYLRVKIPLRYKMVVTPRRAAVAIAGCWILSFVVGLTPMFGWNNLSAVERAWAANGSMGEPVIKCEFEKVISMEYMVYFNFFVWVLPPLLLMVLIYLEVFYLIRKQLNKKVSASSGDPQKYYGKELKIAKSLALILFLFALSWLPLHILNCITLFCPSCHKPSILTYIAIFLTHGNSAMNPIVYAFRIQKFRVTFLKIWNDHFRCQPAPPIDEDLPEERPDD
Chain of human Adenosine A2b receptor (P29275 whole entry): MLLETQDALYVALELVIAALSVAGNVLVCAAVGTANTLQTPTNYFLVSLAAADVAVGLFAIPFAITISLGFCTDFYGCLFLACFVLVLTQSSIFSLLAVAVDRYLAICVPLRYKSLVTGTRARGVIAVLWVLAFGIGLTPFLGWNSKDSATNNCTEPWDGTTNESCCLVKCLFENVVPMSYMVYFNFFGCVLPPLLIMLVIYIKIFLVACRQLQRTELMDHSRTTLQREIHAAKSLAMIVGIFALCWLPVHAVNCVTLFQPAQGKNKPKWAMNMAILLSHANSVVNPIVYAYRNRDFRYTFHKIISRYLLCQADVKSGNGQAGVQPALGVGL

In the case of `Cc1ncnc2ccc(-c3sc(NC(=O)N4CCO[C@H](C(C)(C)O)C4)nc3-c3cccc(C#N)c3)cc12` (single isomer, unassigned) [Example 7.7b, (2S)—N-[4-(3-Cyanophenyl)-5-(4-methylquinazolin-6-yl)thiazol-2-yl]-2-(1-hydroxy-1-methyl-ethyl)morpholine-4-carboxamide or (2R)—N-[4-(3-cyanophenyl)-5-(4-methylquinazolin-6-yl)thiazol-2-yl]-2-(1-hydroxy-1-methyl-ethyl)morpholine-4-carboxamide], the Ki in experiment [1] (setting [4]) was found to be 9 nM; in experiment [2] (setting [4]) it was 0.2 nM; in experiment [3], 1.5 nM.
For the compound `Cc1ncnc2ccc(-c3sc(NC(=O)N4CC5CN(C)CC54)nc3-c3cccc(C#N)c3)cc12` (stereo not drawn) [Example 7.3, N-[4-(3-Cyanophenyl)-5-(4-methylquinazolin-6-yl)thiazol-2-yl]-3-methyl-3,6-diazabicyclo[3.2.0]heptane-6-carboxamide], the Ki in experiment [1] (setting [4]) was found to be 19 nM; in experiment [2] (setting [4]) it was 2.42 nM; in experiment [3], 10.5 nM.
For the compound `CCc1ncnc2ccc(-c3sc(NC(=O)N4CC5(COC5)C4)nc3-c3cccc(C#N)c3)cc12` [Example 13, N-[4-(3-Cyanophenyl)-5-(4-ethylquinazolin-6-yl)thiazol-2-yl]-2-oxa-6-azaspiro[3.3]heptane-6-carboxamide], the Ki in experiment [1] (setting [4]) is 2 nM; in experiment [2] (setting [4]), 0.16 nM; in experiment [3], 1.7 nM.
Regarding `Cc1ncnc2ccc(-c3sc(NC(=O)N4CCC(OCCN5CCCC5)C4)nc3-c3cccc(C#N)c3)cc12` (stereo not drawn) [Example 7.9, N-[4-(3-Cyanophenyl)-5-(4-methylquinazolin-6-yl)thiazol-2-yl]-3-(2-pyrrolidin-1-ylethoxy)pyrrolidine-1-carboxamide], the Ki is 21 nM in experiment [1] (setting [4]), 0.1 nM in experiment [2] (setting [4]) and 1.9 nM in experiment [3].
For the compound `Cc1ncnc2ccc(-c3sc(NC(=O)N4CC5CCCN(C)C5C4)nc3-c3cccc(C#N)c3)cc12` (stereo not drawn) [Example 7.11, N-[4-(3-Cyanophenyl)-5-(4-methylquinazolin-6-yl)thiazol-2-yl]-1-methyl-3,4,4a,5,7,7a-hexahydro-2H-pyrrolo[3,4-b]pyridine-6-carboxamide], the results for the Ki in experiment [1] (setting [4]), in experiment [2] (setting [4]) and in experiment [3] were 98 nM, 0.54 nM and 5.4 nM, respectively.
Consider `Cc1nc(C)c(-c2sc(NC(=O)N3CC4(COC4)C3)nc2-c2cccc(C#N)c2)o1` [Example 15, N-[4-(3-Cyanophenyl)-5-(2,4-dimethyloxazol-5-yl)thiazol-2-yl]-2-oxa-6-azaspiro[3.3]heptane-6-carboxamide], for which the Ki was determined as 14 nM in experiment [1] (setting [4]), 1.74 nM in experiment [2] (setting [4]) and 6.2 nM in experiment [3].
On to `Cc1ncnc2ccc(-c3sc(NC(=O)N4CCC(N5CCN(C)CC5)CC4)nc3-c3cccc(C#N)c3)cc12` [Example 7.12, N-[4-(3-Cyanophenyl)-5-(4-methylquinazolin-6-yl)thiazol-2-yl]-4-(4-methylpiperazin-1-yl)piperidine-1-carboxamide], for which the Ki in experiment [1] (setting [4]) was 221 nM; in experiment [2] (setting [4]), 2.05 nM; in experiment [3], 6.5 nM.
`Cc1ncnc2ccc(-c3sc(NC(=O)N4CCN(C(C)C#N)CC4)nc3-c3cccc(C#N)c3)cc12` (stereo not drawn) [Example 7.5, 4-(1-Cyanoethyl)-N-[4-(3-cyanophenyl)-5-(4-methylquinazolin-6-yl)thiazol-2-yl]piperazine-1-carboxamide]: the Ki in experiment [1] (setting [4]) was determined as 9 nM; in experiment [2] (setting [4]) it was 0.21 nM; in experiment [3] it was 1.2 nM.
Turning to `Cc1ncnc2ccc(-c3sc(NC(=O)N4CCC5(COCCN5)C4)nc3-c3cccc(C#N)c3)cc12` (stereo not drawn) [Example 4.3, N-[4-(3-Cyanophenyl)-5-(4-methylquinazolin-6-yl)thiazol-2-yl]-9-oxa-2,6-diazaspiro[4.5]decane-2-carboxamide], the Ki in experiment [1] was found to be 30 nM; in experiment [2], 0.3 nM; in experiment [3] it was 2.4 nM.
`Cc1ncnc2ccc(-c3sc(NC(=O)N4CC[C@](C)(C#N)C4)nc3-c3cccc(C#N)c3)cc12` [Example 1, (3S)-3-Cyano-N-[4-(3-cyanophenyl)-5-(4-methylquinazolin-6-yl)thiazol-2-yl]-3-methyl-pyrrolidine-1-carboxamide]: the Ki in experiment [1] (setting [4]) came to 2 nM; in experiment [2] (setting [4]), 0.12 nM; in experiment [3], 0.9 nM.
As for `Cc1ncnc2ccc(-c3sc(NC(=O)N4CCOC(CN(C)C)C4)nc3-c3cccc(C#N)c3)cc12` (stereo not drawn) [Example 7.8, N-[4-(3-Cyanophenyl)-5-(4-methylquinazolin-6-yl)thiazol-2-yl]-2-[(dimethylamino)methyl]morpholine-4-carboxamide], the Ki in experiment [1] (setting [4]) turned out to be 13 nM; in experiment [2] (setting [4]), 0.14 nM; in experiment [3], 2.4 nM.
On to `Cc1cc(-c2sc(NC(=O)N3CC4(COC4)C3)nc2-c2cccc(C#N)c2)cc2cnn(C)c12` [Example 30, N-[4-(3-Cyanophenyl)-5-(1,7-dimethylindazol-5-yl)thiazol-2-yl]-2-oxa-6-azaspiro[3.3]heptane-6-carboxamide], for which the Ki in experiment [1] (setting [4]) was found to be 14 nM; in experiment [2] (setting [4]), 0.59 nM; in experiment [3], 13.2 nM.
Take `Cc1cc(-c2sc(NC(=O)N3CC4(COC4)C3)nc2-c2cccc(C#N)c2)c2ccn(C)c2n1` [Example 24, N-[4-(3-Cyanophenyl)-5-(1,6-dimethylpyrrolo[2,3-b]pyridin-4-yl)thiazol-2-yl]-2-oxa-6-azaspiro[3.3]heptane-6-carboxamide]: the Ki is 245 nM in experiment [1] (setting [4]), 10.5 nM in experiment [2] (setting [4]) and 7.2 nM in experiment [3].
In the case of `Cc1ncnc2ccc(-c3sc(NC(=O)N4CCC(N5CCOCC5)CC4)nc3-c3cccc(C#N)c3)cc12` [Example 7.14, N-[4-(3-Cyanophenyl)-5-(4-methylquinazolin-6-yl)thiazol-2-yl]-4-morpholino-piperidine-1-carboxamide], the Ki in experiment [1] (setting [4]) amounted to 150 nM; in experiment [2] (setting [4]) it was 2.61 nM; in experiment [3] it was 5.4 nM.
On to `Cc1ncnc2ccc(-c3sc(NC(=O)N4CCN(CC#N)CC4)nc3-c3cccc(C#N)c3)cc12` [Example 7.15, 4-(Cyanomethyl)-N-[4-(3-cyanophenyl)-5-(4-methylquinazolin-6-yl)thiazol-2-yl]piperazine-1-carboxamide], for which the Ki in experiment [1] (setting [4]) is 14 nM; in experiment [2] (setting [4]) it was 0.18 nM; in experiment [3] it was 1.1 nM.
`Cc1ncnc2ccc(-c3sc(NC(=O)N4CC5(COCCN5)C4)nc3-c3cccc(C#N)c3)cc12` [Example 4.2, N-[4-(3-Cyanophenyl)-5-(4-methylquinazolin-6-yl)thiazol-2-yl]-8-oxa-2,5-diazaspiro[3.5]nonane-2-carboxamide]: the Ki in experiment [1] was determined as 34 nM; in experiment [2], 0.35 nM; in experiment [3] it was 3 nM.
Regarding `Cc1ncnc2ccc(-c3sc(NC(=O)N4CCO[C@H](C(C)(C)O)C4)nc3-c3cccc(C#N)c3)cc12` (single isomer, unassigned) [Example 7.7a, (2S)—N-[4-(3-Cyanophenyl)-5-(4-methylquinazolin-6-yl)thiazol-2-yl]-2-(1-hydroxy-1-methyl-ethyl)morpholine-4-carboxamide or (2R)—N-[4-(3-cyanophenyl)-5-(4-methylquinazolin-6-yl)thiazol-2-yl]-2-(1-hydroxy-1-methyl-ethyl)morpholine-4-carboxamide], the Ki is 4 nM in experiment [1] (setting [4]), 0.1 nM in experiment [2] (setting [4]) and 1.1 nM in experiment [3].
With `Cc1nc(C)c2cc(-c3sc(NC(=O)N4CC5(COC5)C4)nc3-c3cccc(C#N)c3)ccc2n1` [Example 9, N-[4-(3-Cyanophenyl)-5-(2,4-dimethylquinazolin-6-yl)thiazol-2-yl]-2-oxa-6-azaspiro[3.3]heptane-6-carboxamide], the Ki is 70 nM in experiment [1] (setting [4]), 5.45 nM in experiment [2] (setting [4]) and 6 nM in experiment [3].
Turning to `Cc1nc(C)c(-c2sc(NC(=O)N3CCC(C)(C#N)CC3)nc2-c2cccc(C#N)c2)o1` [Example 14, 4-Cyano-N-[4-(3-cyanophenyl)-5-(2,4-dimethyloxazol-5-yl)thiazol-2-yl]-4-methyl-piperidine-1-carboxamide], the Ki was 12 nM in experiment [1] (setting [4]), 0.42 nM in experiment [2] (setting [4]) and 2.8 nM in experiment [3].
Take `Cc1ncnc2ccc(-c3sc(NC(=O)N4CC5(CCO5)C4)nc3-c3cccc(C#N)c3)cc12` [Example 7.19, N-[4-(3-Cyanophenyl)-5-(4-methylquinazolin-6-yl)thiazol-2-yl]-1-oxa-6-azaspiro[3.3]heptane-6-carboxamide]: the Ki in experiment [1] (setting [4]) worked out at 13 nM; in experiment [2] (setting [4]), 0.08 nM; in experiment [3] it was 0.9 nM.
